Experimental data from the supplement of paper PMC13380429.
± gives the standard deviation of the averaged measurements.

Columns and labels:
Conditions in all cases: 72 h
Caco-2 [1] = experiment: cell viability relative to DMSO; higher = less toxic
Calu-3 [2] = experiment: as above
HepG2 [3] = experiment: as above
U2OS [4] = experiment: as above
Vero E6 [5] = experiment: as above
Caco-2 [6] = experiment: relative viability EC50 (midpoint between 100% and the lowest measured viability); higher = less toxic
Calu-3 [7] = experiment: as above
HepG2 [8] = experiment: as above
U2OS [9] = experiment: as above
Vero E6 [10] = experiment: as above
Caco-2 [11] = experiment: drug sensitivity score (DSS) for viability; higher = more toxic; extreme values may be limits of the assay
Calu-3 [12] = experiment: as above
HepG2 [13] = experiment: as above
U2OS [14] = experiment: as above
Vero E6 [15] = experiment: as above

| Structure (SMILES) | cell viability (Caco-2 [1]; 1 nM) [%] | cell viability (Caco-2 [1]; 10 nM) [%] | cell viability (Caco-2 [1]; 100 nM) [%] | cell viability (Caco-2 [1]; 1000 nM) [%] | cell viability (Caco-2 [1]; 10000 nM) [%] | cell viability (Calu-3 [2]; 1 nM) [%] | cell viability (Calu-3 [2]; 10 nM) [%] | cell viability (Calu-3 [2]; 100 nM) [%] | cell viability (Calu-3 [2]; 1000 nM) [%] | cell viability (Calu-3 [2]; 10000 nM) [%] | cell viability (HepG2 [3]; 1 nM) [%] | cell viability (HepG2 [3]; 10 nM) [%] | cell viability (HepG2 [3]; 100 nM) [%] | cell viability (HepG2 [3]; 1000 nM) [%] | cell viability (HepG2 [3]; 10000 nM) [%] | cell viability (U2OS [4]; 1 nM) [%] | cell viability (U2OS [4]; 10 nM) [%] | cell viability (U2OS [4]; 100 nM) [%] | cell viability (U2OS [4]; 1000 nM) [%] | cell viability (U2OS [4]; 10000 nM) [%] | cell viability (Vero E6 [5]; 1 nM) [%] | cell viability (Vero E6 [5]; 10 nM) [%] | cell viability (Vero E6 [5]; 100 nM) [%] | cell viability (Vero E6 [5]; 1000 nM) [%] | cell viability (Vero E6 [5]; 10000 nM) [%] | relative viability EC50 (Caco-2 [6]) [µM] | relative viability EC50 (Calu-3 [7]) [µM] | relative viability EC50 (HepG2 [8]) [µM] | relative viability EC50 (U2OS [9]) [µM] | relative viability EC50 (Vero E6 [10]) [µM] | drug sensitivity score (Caco-2 [11]) | drug sensitivity score (Calu-3 [12]) | drug sensitivity score (HepG2 [13]) | drug sensitivity score (U2OS [14]) | drug sensitivity score (Vero E6 [15]) |
| --- | --- | --- | --- | --- | --- | --- | --- | --- | --- | --- | --- | --- | --- | --- | --- | --- | --- | --- | --- | --- | --- | --- | --- | --- | --- | --- | --- | --- | --- | --- | --- | --- | --- | --- | --- |
| CCCCOc1nc(N)c2c(n1)N(Cc1cccc(CN3CCCC3)c1)CC(=O)N2 [GS-9620] | 96.3 | 104 | 91.4 | 98.5 | 98.3 | 101 | 95.1 | 111 | 96.1 | 104 | 105 | 102 | 95.9 | 100 | 99.1 | 100 | 96.5 | 96.8 | 95.6 | 101 | 108 | 96.3 | 101 | 103 | 98.8 | > 10 | > 10 | > 10 | > 10 | > 10 | 0 | 0 | 0 | 0 | 0 |
| Fc1cc(F)c2c(c1)[C@H]1C=CC[C@H]1C(c1cccnc1)N2 (stereo not given in full) [Golgicide A] | 108 | 103 | 101 | 98.2 | 31.5 | 103 | 108 | 108 | 98.2 | 19 | 121 | 108 | 102 | 105 | 10.9 | 103 | 101 | 105 | 105 | 1.7 | 111 | 108 | 105 | 100 | 4.4 | 2.97 | 3.01 | 3.48 | 3.46 | 3.2 | 4 | 4.7 | 4.5 | 5.1 | 5.3 |
| Nc1nonc1/C(=N/O)Nc1ccc(F)c(Cl)c1 [IDO5L] | 101 | 95.2 | 115 | 87.7 | 109 | 92.5 | 96 | 108 | 89.6 | 114 | 92.8 | 97.8 | 104 | 89.9 | 91.2 | 93.1 | 95.7 | 102 | 95.5 | 102 | 106 | 102 | 96.7 | 98.8 | 114 | > 10 | > 10 | > 10 | > 10 | > 10 | 0 | 0 | 0 | 0 | 0 |
| O=c1ccn([C@@H]2O[C@H](COP(=O)(O)OP(=O)(O)OP(=O)(O)O)[C@@H](O)[C@H]2O)c(=O)[nH]1 [INS316] | 102 ± 6 | 107 ± 18 | 109 ± 1.8 | 113 ± 26 | 93.5 ± 13 | 94.5 ± 3.1 | 95.8 ± 7.1 | 92.5 ± 1.9 | 100.8 ± 0.21 | 101 ± 7.7 | 100 ± 1.2 | 107 ± 2 | 109 ± 10 | 105 ± 3 | 103 ± 5.7 | 99.4 ± 5.7 | 95.9 ± 3.8 | 103 ± 7.8 | 96.3 ± 6.7 | 105 ± 1.8 | 98.6 ± 2.5 | 93.3 ± 11 | 98.2 ± 2.6 | 98.5 ± 4.2 | 99.1 ± 3.1 | > 10 | > 10 | > 10 | > 10 | > 10 | 0 | 0 | 0 | 0 | 0 |
| O=C(Oc1ccc([N+](=O)[O-])cc1)N1CCC(C(O)(c2ccc3c(c2)OCO3)c2ccc3c(c2)OCO3)CC1 [JZL-184] | 104 | 98.5 | 100 | 91.5 | 104 | 105 | 115 | 100 | 91.2 | 117 | 109 | 114 | 90.5 | 116 | 97.9 | 94.9 | 100 | 98 | 96.2 | 97.9 | 106 | 97.2 | 91.9 | 96.4 | 91 | > 10 | > 10 | > 10 | > 10 | > 10 | 0 | 0 | 0 | 0 | 0 |
| NC(=O)NCCC[C@H](N)C(=O)O [L-citrulline] | 99 | 104 | 92.3 | 101 | 92.4 | 101 | 92.2 | 98.6 | 96.9 | 110 | 100 | 95.2 | 92.7 | 91.4 | 94 | 98.7 | 102 | 95.5 | 105 | 95.6 | 98.6 | 96 | 97.2 | 97.8 | 102 | > 10 | > 10 | > 10 | > 10 | > 10 | 0 | 0 | 0 | 0 | 0 |
| N=C(Nc1ccccc1)c1cccs1 [LTA] | 89.4 | 88.4 | 98.1 | 93.7 | 82.8 | 97.6 | 104 | 97.4 | 104 | 91.6 | 105 | 105 | 96.8 | 99.1 | 110 | 99.9 | 104 | 95.9 | 104 | 95.7 | 99.7 | 101 | 93.5 | 99.1 | 103 | > 10 | > 10 | > 10 | > 10 | > 10 | 0 | 0 | 0 | 0 | 0 |
| CN1C(=O)C(F)=C[C@]2(C)[C@H]3CC[C@]4(C)[C@@H](C(=O)NCc5nc6cccnc6[nH]5)CC[C@H]4[C@@H]3CC[C@@H]12 [MK-0773] | 102 | 92.4 | 100 | 83.3 | 87.7 | 103 | 103 | 101 | 97.7 | 100 | 91.1 | 108 | 93 | 91.4 | 87.9 | 99 | 99.4 | 98.8 | 95.4 | 95.9 | 99.2 | 102 | 96.2 | 104 | 104 | > 10 | > 10 | > 10 | > 10 | > 10 | 1.8 | 0 | 0.9 | 0 | 0 |
| CC(C)(C)NC(=O)[C@@H](c1cccnc1)N(C(=O)c1ccco1)c1ccc(C(C)(C)C)cc1 [ML188] | 99.7 | 95 | 98.2 | 101 | 89.9 | 93.6 | 93.4 | 96.9 | 102 | 89.7 | 96.3 | 101 | 92.1 | 106 | 95 | 93.9 | 100 | 96.6 | 101 | 98.8 | 93.1 | 97.7 | 103 | 108 | 97.6 | > 10 | > 10 | > 10 | > 10 | > 10 | 0 | 0 | 0 | 0 | 0 |
| CCC(CC)(NC(=O)C(C)C)C(=O)N[C@@H](CCCNC(=N)N)C(=O)NC1(C(=O)NC(c2ccc(F)cc2)c2ccc(F)cc2)CCCC1 [MM-102] | 99 | 93.9 | 101 | 94.6 | 102 | 98.1 | 85.4 | 92.5 | 97.8 | 97.8 | 100 | 96.8 | 98.4 | 105 | 114 | 97.8 | 94.9 | 101 | 95.8 | 99.2 | 94.2 | 101 | 97.3 | 99.5 | 106 | > 10 | > 10 | > 10 | > 10 | > 10 | 0 | 0 | 0 | 0 | 0 |
| CNC(=O)c1ccccc1Nc1nc(Nc2ccc(N3CCOCC3)cc2OC)ncc1Cl [NVP-TAE226] | 96 | 104 | 88.3 | 54.1 | 44.2 | 93.1 | 90.8 | 86.2 | 74.5 | 41.9 | 114 | 99.6 | 91.3 | 33.1 | 20.8 | 99.9 | 100 | 94.1 | 69 | 22 | 99.6 | 97.7 | 96.3 | 66.7 | 48.4 | 0.295 | 0.706 | 0.356 | 1.26 | 0.645 | 9.8 | 6.9 | 13.5 | 7.9 | 6.8 |
| N[C@H]1C[C@@H]1c1ccc(-c2cccc(O)c2)cc1 [OG-L002] | 104 | 100 | 102 | 101 | 105 | 108 | 106 | 99.3 | 95.3 | 108 | 103 | 97.6 | 100 | 115 | 114 | 101 | 94.3 | 98.3 | 97.8 | 96.4 | 96 | 103 | 95.9 | 104 | 107 | > 10 | > 10 | > 10 | > 10 | > 10 | 0 | 0 | 0 | 0 | 0 |
| CN1CCN(c2ccc(-c3cccc(CN4CCOCC4)c3)cc2NC(=O)c2c[nH]c(=O)cc2C(F)(F)F)CC1 [OICR-9429] | 106 | 97.7 | 94.1 | 92 | 98.2 | 97 | 108 | 98 | 104 | 88.3 | 108 | 98.7 | 99.7 | 95.8 | 95 | 102 | 98.2 | 99.2 | 97.4 | 100 | 99.1 | 101 | 98 | 100 | 95.1 | > 10 | > 10 | > 10 | > 10 | > 10 | 0 | 0 | 0 | 0 | 0 |
| Cc1csc(S(=O)(=O)N(CC(C)C)c2cc3c(cc2OCc2ccc(C(=O)O)cc2)CCC3)n1 [ONO-8130] | 99 | 104 | 96.4 | 99.2 | 91.6 | 98.5 | 101 | 97.6 | 98.5 | 99.5 | 110 | 95.3 | 96.8 | 94.8 | 93.6 | 97.9 | 103 | 97.5 | 101 | 95.1 | 107 | 102 | 99.3 | 97 | 98.6 | > 10 | > 10 | > 10 | > 10 | > 10 | 0 | 0 | 0 | 0 | 0 |
